US20260256792A1, “TREATMENT OF CHRONIC SPONTANEOUS URTICARIA BY ADMINISTERING (R)-2-[3-[4-AMINO-3-(2-FLUORO-4-PHENOXY-PHENYL)PYRAZOLO[3,4-D]PYRIMIDIN-1-YL]PIPERIDINE-1-CARBONYL]-4-METHYL-4-[4-(OXETAN-3-YL)PIPERAZIN-1-YL]PENT-2-ENENITRILE” (priority 2023, published 2026)

Test system: moderate-to-severe chronic spontaneous urticaria (CSU)
Test: Phase 2 CSU study: Patient Global Impression of Change (PGIC)
Format: in vivo, human
Conditions: for PGIC Mean (SD) / PGIC Median / PGIC category A little better, patients / PGIC category A little worse, patients / PGIC category Moderately better, patients / PGIC category Moderately worse, patients / PGIC category No change, patients / PGIC category Very much better, patients / PGIC category Very much worse, patients: omalizumab-naïve population; for PGIC LS Mean (SE) / PGIC LS Mean Diff vs. placebo (95% CI): omalizumab-naïve, ANCOVA
Source text: The study comprises a 12 week, randomized, double-blind, placebo-controlled, multi-center, dose-ranging efficacy and safety phase, followed by a 40 week open label extension (OLE) phase (see FIG. 1).
The study consists of three phases and an optional OLE phase.
The PGIS is a 1-item measure that asks participants to provide a self-assessment of their overall CSU severity for the past week on a 4 point scale. Response choices are: “None”, “Mild”, “Moderate” and “Severe”. The PGIC is a 1-item measure that asks the participant to provide a self-assessment of overall change in their CSU since the participant started taking the study medication on a 7-point scale. The response options range from “Very Much Better” to “Very Much Worse.” Patients were to complete questionnaires for the 2 items during their site visit.

With `CC(C)(C=C(C#N)C(=O)N1CCC[C@@H](n2nc(-c3ccc(Oc4ccccc4)cc3F)c3c(N)ncnc32)C1)N1CCN(C2COC2)CC1` [rilzabrutinib, (R)-2-[3-[4-amino-3-(2-fluoro-4-phenoxy-phenyl)pyrazolo[3,4-d]pyrimidin-1-yl]piperidine-1-carbonyl]-4-methyl-4-[4-(oxetan-3-yl)piperazin-1-yl]pent-2-enenitrile] the “quality of life as measured by PGIC” value (400 mg TID) was “improvement”, the “PGIC Mean (SD)” value (Week 2, 400 mg BID) was 1.61 and the “PGIC Median” value (Week 2, 400 mg BID) was 1.00. For the same compound, the “PGIC category A little better, patients” value (Week 2, 400 mg BID) was 6 (19.4), the “PGIC category A little worse, patients” value (Week 2, 400 mg BID) was 1 (3.2) and the “PGIC category Moderately better, patients” value (Week 2, 400 mg BID) was 5 (16.1). The “PGIC category Moderately worse, patients” value (Week 2, 400 mg BID) was 1 (3.2), the “PGIC category No change, patients” value (Week 2, 400 mg BID) was 6 (19.4) and the “PGIC category Very much better, patients” value (Week 2, 400 mg BID) was 11 (35.5). The “PGIC category Very much worse, patients” value (Week 2, 400 mg BID) was 1 (3.2), the “PGIC LS Mean (SE)” value (Week 2, 400 mg BID) was 1.53 and the “PGIC LS Mean Diff vs. placebo (95% CI)” value (Week 2, 400 mg BID) was −0.81. The “PGIC Mean (SD)” value (Week 2, 400 mg QPM) was 2.33, the “PGIC Median” value (Week 2, 400 mg QPM) was 3.00 and the “PGIC category A little better, patients” value (Week 2, 400 mg QPM) was 7 (21.2). For the same compound, the “PGIC category A little worse, patients” value (Week 2, 400 mg QPM) was 1 (3.0), the “PGIC category Moderately better, patients” value (Week 2, 400 mg QPM) was 5 (15.2) and the “PGIC category Moderately worse, patients” value (Week 2, 400 mg QPM) was 0. For the same compound, the “PGIC category No change, patients” value (Week 2, 400 mg QPM) was 16 (48.5), the “PGIC category Very much better, patients” value (Week 2, 400 mg QPM) was 3 (9.1) and the “PGIC category Very much worse, patients” value (Week 2, 400 mg QPM) was 1 (3.0). For the same compound, the “PGIC LS Mean (SE)” value (Week 2, 400 mg QPM) was 2.12, the “PGIC LS Mean Diff vs. placebo (95% CI)” value (Week 2, 400 mg QPM) was −0.22 and the “PGIC Mean (SD)” value (Week 2, 400 mg TID) was 1.42. For the same compound, the “PGIC Median” value (Week 2, 400 mg TID) was 1.00, the “PGIC category A little better, patients” value (Week 2, 400 mg TID) was 7 (21.2) and the “PGIC category A little worse, patients” value (Week 2, 400 mg TID) was 0. For the same compound, the “PGIC category Moderately better, patients” value (Week 2, 400 mg TID) was 7 (21.2), the “PGIC category Moderately worse, patients” value (Week 2, 400 mg TID) was 1 (3.0) and the “PGIC category No change, patients” value (Week 2, 400 mg TID) was 5 (15.2). The “PGIC category Very much better, patients” value (Week 2, 400 mg TID) was 12 (36.4), the “PGIC category Very much worse, patients” value (Week 2, 400 mg TID) was 1 (3.0) and the “PGIC LS Mean (SE)” value (Week 2, 400 mg TID) was 1.43. The “PGIC LS Mean Diff vs. placebo (95% CI)” value (Week 2, 400 mg TID) was −0.91, the “PGIC Mean (SD)” value (Week 4, 400 mg BID) was 1.67 and the “PGIC Median” value (Week 4, 400 mg BID) was 1.00. For the same compound, the “PGIC category A little better, patients” value (Week 4, 400 mg BID) was 6 (18.2), the “PGIC category A little worse, patients” value (Week 4, 400 mg BID) was 2 (6.1) and the “PGIC category Moderately better, patients” value (Week 4, 400 mg BID) was 8 (24.2). The “PGIC category Moderately worse, patients” value (Week 4, 400 mg BID) was 0, the “PGIC category No change, patients” value (Week 4, 400 mg BID) was 7 (21.2) and the “PGIC category Very much better, patients” value (Week 4, 400 mg BID) was 9 (27.3). The “PGIC category Very much worse, patients” value (Week 4, 400 mg BID) was 1 (3.0), the “PGIC LS Mean (SE)” value (Week 4, 400 mg BID) was 1.59 and the “PGIC LS Mean Diff vs. placebo (95% CI)” value (Week 4, 400 mg BID) was −0.49. For the same compound, the “PGIC Mean (SD)” value (Week 4, 400 mg QPM) was 2.24, the “PGIC Median” value (Week 4, 400 mg QPM) was 2.00 and the “PGIC category A little better, patients” value (Week 4, 400 mg QPM) was 10 (29.4). The “PGIC category A little worse, patients” value (Week 4, 400 mg QPM) was 5 (14.7), the “PGIC category Moderately better, patients” value (Week 4, 400 mg QPM) was 4 (11.8) and the “PGIC category Moderately worse, patients” value (Week 4, 400 mg QPM) was 1 (2.9). For the same compound, the “PGIC category No change, patients” value (Week 4, 400 mg QPM) was 7 (20.6), the “PGIC category Very much better, patients” value (Week 4, 400 mg QPM) was 6 (17.6) and the “PGIC category Very much worse, patients” value (Week 4, 400 mg QPM) was 1 (2.9). The “PGIC LS Mean (SE)” value (Week 4, 400 mg QPM) was 2.06, the “PGIC LS Mean Diff vs. placebo (95% CI)” value (Week 4, 400 mg QPM) was −0.02 and the “PGIC Mean (SD)” value (Week 4, 400 mg TID) was 1.14. The “PGIC Median” value (Week 4, 400 mg TID) was 1.00, the “PGIC category A little better, patients” value (Week 4, 400 mg TID) was 6 (20.7) and the “PGIC category A little worse, patients” value (Week 4, 400 mg TID) was 1 (3.4). For the same compound, the “PGIC category Moderately better, patients” value (Week 4, 400 mg TID) was 5 (17.2), the “PGIC category Moderately worse, patients” value (Week 4, 400 mg TID) was 0 and the “PGIC category No change, patients” value (Week 4, 400 mg TID) was 4 (13.8). For the same compound, the “PGIC category Very much better, patients” value (Week 4, 400 mg TID) was 13 (44.8), the “PGIC category Very much worse, patients” value (Week 4, 400 mg TID) was 0 and the “PGIC LS Mean (SE)” value (Week 4, 400 mg TID) was 1.18. For the same compound, the “PGIC LS Mean Diff vs. placebo (95% CI)” value (Week 4, 400 mg TID) was −0.90, the “PGIC Mean (SD)” value (Week 8, 400 mg BID) was 1.42 and the “PGIC Median” value (Week 8, 400 mg BID) was 1.00. The “PGIC category A little better, patients” value (Week 8, 400 mg BID) was 3 (9.1), the “PGIC category A little worse, patients” value (Week 8, 400 mg BID) was 1 (3.0) and the “PGIC category Moderately better, patients” value (Week 8, 400 mg BID) was 8 (24.2). For the same compound, the “PGIC category Moderately worse, patients” value (Week 8, 400 mg BID) was 1 (3.0).
